# Measured values as given in US7829552B2, “Phosphorus-containing thyromimetics” (Metabasis Therapeutics, Inc., priority 2003, dated 2010).
# How the values were obtained:
# [1] = Liver distribution following oral administration (liver levels of Compound 7 by LC-MS); format: in vivo, rat; conditions: levels of Compound 7 in liver, 10 mg/kg@1.5 h, normal rats
# Experimental: Liver levels of Compound 7 were assessed in normal rats following oral administration of the HepDirect™ or other prodrugs. The levels were used to estimate potential efficacy. Liver levels were assessed by LC-MS using the 363.3/63.0 peak area to estimate levels of Compound 7 generated by orally administered prodrugs.
# [2] = test system: ZDF rats; test: Liver triglycerides and liver histology in ZDF rats, oral 28 days; format: in vivo, rat
# Experimental: In other experiments, Compound 7 was orally administered to ZDF rats for 28 days. Liver triglycerides were analyzed as described above. Total liver triglycerides were reduced in the treated animals 42% in the 2.5 mg/kg/d group. […] The hepatic steatosis is a well known and described phenomenon for the ZDF rat, and therefore not attributable to vehicle treatment.
# [3] = test system: Hypercholesterolemic rats; test: Cholesterol lowering in hypercholesterolemic (cholesterol-fed) rats; format: in vivo, rat
# Experimental: Plasma cholesterol values were assessed prior to and following treatment and the effects of compound were expressed as a percentage change from the pre-dose cholesterol levels. […] Compounds were routinely tested for oral efficacy at a dose of 0.5 mg/kg/d. Hypercholesterolemic rats were treated with vehicle, Compound 13-1-cis (a HepDirect version of Compound 7), Compound 19-1 (a diethyl ester of Compound 19-2), Compound 13-9 (a HepDirect version of Compound 19-2), Compound 12-5 (a bisPom version of compound 19-2), or Compound 15-5 (a bisamidate version of Compound 19-2) at 0.5 mg/kg/d orally. Compound 13-1-cis has been extensively characterized and was used as the positive control for the assay.
# [4] = test system: isolated rat hepatocytes; test: Activation of prodrug in isolated rat hepatocytes; format: in vitro ADME; conditions: active species in hepatocytes, 100 μM
# Experimental: Method: Hepatocytes are prepared from fed Sprague-Dawley rats (250-300 g) according to the procedure of Berry and Friend (Berry, M. N., Friend, D. S. J. Cell Biol. 43, 506-520 (1969)) as modified by Groen (Groen, A. K. et al., Eur J. Biochem 122, 87-93 (1982)). Hepatocytes (60 mg wet weight/mL) are incubated in 1 mL Krebs-bicarbonate buffer containing 10 mM glucose, and 1 mg/mL BSA. Incubations are carried out in a 95% oxygen, 5% carbon dioxide atmosphere in closed, 50-mL Falcon tubes submerged in a rapidly shaking water bath (37° C.). Prodrugs are dissolved in DMSO to yield 10 mM stock solutions, and then diluted into the cell suspension to yield a final concentration of 100 μM. At appropriate time points over the course of 1 h, aliquots of the cell suspension are removed and spun through a silicon/mineral oil layer into 10% perchloric acid. The cell extracts in the acid layers are neutralized, and the intracellular prodrug metabolite content analyzed by reverse phase HPLC or LC-MS/MS (Example F). The AUC of the active species in the hepatocytes is calculated from the concentration-time profile of parent compound.
# [5] = test system: cholesterol-fed rat; test: Subacute studies in cholesterol-fed rats, IP once-a-day for seven days: serum cholesterol, heart weight, heart GPDH
# Experimental: The cholesterol-fed rat is an animal model of hypercholesterolemia generated by feeding the animals a diet with high cholesterol content.
# Serum cholesterol values were assessed and the animals randomized into groups for treatment.
# [6] = test system: ZDF rats; test: Circulating TSH in ZDF rats treated 28 days; format: in vivo, rat; conditions: 50 mg/kg/d for 28 days
# Source text: Another concern with synthetic thyromimetics is the suppression of the endogenous thyroid axis. Thyroid homeostasis is maintained by the action of thyroid releasing hormone (TRH) and thyroid stimulating hormone (TSH). […] Although this particular side effect has been noted, it has typically been treated with less concern than the cardiac safety issues. […] Therefore previous investigators have measured TSH levels when testing synthetic thyromimetics and have used a 30% decrease of TSH as the denominator in their therapeutic index calculations. […] Therefore, both compounds suppress TSH as doses lower than that required to decrease circulating cholesterol. […] However, 0.2 mg/kg/d of Compound 18 in 28 day treated ZDF rats, decreased TSH levels greater than 90%.
# [7] = test system: Sprague Dawley (SD) rat; test: Cardiovascular activity of T3 mimetics in the Sprague Dawley rat, oral 7 days; format: in vivo; conditions: SD rats, p.o. 7 days, Compound cis-13-1 1-50 mg/kg/day
# Source text: Method: […] The control group (n=6) was given vehicle only. […] On the 7th day after the start of dosing, animals were anesthetized with Isoflurane and the left ventricle cannulated with a high fidelity catheter tip transducer via the right carotid artery. Left ventricular pressure, its first derivative (LVdP/dt), lead I ECG, and heart rate (HR) triggered off the ECG waveform, were digitally recorded. LV dP/dt is a well accepted measure of ionotropic state. Systolic and diastolic aortic pressures were measured by retracting the catheter into the proximal aorta.
# [8] = test system: cholesterol fed rats; test: Subacute studies in cholesterol fed rats, PO once a day for seven days: cholesterol reduction, heart weight; format: in vivo, rat; conditions: 0.6-50 mg/kg/day PO once a day for seven days
# Experimental: Methods: […] Compound 13-1-cis and Compound 18 were administered PO once a day for seven days. Serum TSH is measured using an enzyme immunoassay (EIA) kit designed for rat TSH (Amersham Pharmacia Biotech, Arlington Heights, Ill.). Expression levels of liver genes (e.g., the LDL-receptor, apoB, cpt-1, spot14 and apoA1) and heart genes ([…]^2, Kv1.5, MHCα, MHCβ, Alpha1c) are quantified by Northern blot analysis or by RT-PCR. […] Oligonucleotides specific for the complementary gene sequences are used to make ^32P-labeled probes (Multiprime DNA labeling systems, Amersham Pharmacia Biotech). Following hybridization of the probes to the nylon membranes, radioactivity is assessed on a blue film (Eastman Kodak Co,), and the resulting image quantified using the appropriate software. RT-PCR is performed using an iCycler instrument (Biorad) using appropriate primers by means of standard methodology [[…] et al. (2000) Life Sciences 66: 1683-94]. […] The activities of PEPCK and glucose 6-phosphatase in liver are measured by means of direct enzymatic assays of homogenized liver tissue as described by Andrikopoulos S et al. (1993) Diabetes 42: 1731-1736. Alternatively, expression levels of the corresponding genes are determined by Northern blot analysis or RT-PCR as described above.
# [9] = test system: ZDF rats; conditions: rat, in vivo, 28 days
# Experimental: Compound 18 was administered at doses up to 5 mg/kg/d. Compound cis-13-1 was administered at doses up to 50 mg/kg/d. We reasoned that the ZDF rat, as a metabolically challenged animal model, would be more sensitive to the potential adverse cardiac effects of thyromimetics than a normal, cholesterol-fed rat. At sacrifice, heart rate, and the first derivative of left ventricular pressure (LV dP/dt) were measured with a Millar catheter inserted into the left ventricle.
# [10] = Compound 18 1 mg/kg, vs control
# [11] = Compound 18 1 mg/kg, vs vehicle
"TI Improvement, ED15 HR [9]",SMILES,Liver Levels [1],microvesicular steatosis (H&E liver histology) [2],"efficacy in lowering cholesterol ([3]; another experiment, dose and route not given)",AUC (0-2 h) [4] [nmol·h/g],"serum cholesterol ([5]; 1-100 mg/kd/day, IP once-a-day for seven days)",therapeutic window (separation between cholesterol lowering and cardiac toxicity) ([5]; cholesterol-fed rats),TSH [6],"Heart weight [7, 10]","heart weight normalized to body weight [7, 10]","HR [7, 11]","LV dP/dt [7, 11]","systolic aortic pressure [7, 11]",diastolic aortic pressure ([7]; vs vehicle),serum cholesterol [8],"cholesterol lowering ([3]; hypercholesterolemic rats, 0.5 mg/kg/d orally)"
,"Cc1cc(OCP(=O)(O)O)cc(C)c1Cc1ccc(O)c(C(C)C)c1 [Compound 7, [3,5-dimethyl-4-(4′-hydroxy-3′-iso-propylbenzyl)phenoxy]methylphosphonic Acid]",Not Detected,dose dependent reduction in the microvesicular steatosis,efficacous,1371,significantly decreased serum cholesterol,10- to 100 fold,no statistically significant difference from vehicle,,,,,,,,
>39,"Cc1cc(OC[P@@]2(=O)OCC[C@@H](c3cccc(Cl)c3)O2)cc(C)c1Cc1ccc(O)c(C(C)C)c1 [Compound 13-1-cis, Cis (S)-2-[(3,5-Dimethyl-4-(4′-hydroxy-3′-iso-propylbenzyl)phenoxy)methyl]-4-(3-Chlorophenyl)-2-oxo-2λ^5-[1,3,2]-dioxaphosphinane]",,,,,,,,no significant changes,no significant changes,not significantly different,not significantly different,not significantly different,not significantly different,significantly decreased serum cholesterol,significant lowering of cholesterol
